Data as given in ChEMBL document CHEMBL5308541, “MAIP: An Open-Source Tool to Enrich High-Throughput Screening Output and Identify Novel, Druglike Molecules with Antimalarial Activity” (ACS Med Chem Lett, 2023).

Key:
Plasmodium falciparum [1] = test: Hit confirmation in dose-response curve in NF54 nanoGlo assay, at 12h; type: functional, organism-based, Erythrocyte; design: timepoint 12 hour; conditions: Plasmodium falciparum, NF54, Erythrocyte, 12 h
[2] = Hit confirmation in dose-response curve in HepG2 cytotoxicity assay, at 72h; type: toxicity, cell-based, Homo sapiens; design: timepoint 72 hour; conditions: human, HepG2 cells
Plasmodium falciparum [3] = test: Hit confirmation in dose-response curve in NF54 pLDH assay, at 72h; type: functional, organism-based, Erythrocyte; design: timepoint 72 hour; conditions: Plasmodium falciparum, NF54, Erythrocyte, 72 h
Plasmodium falciparum [4] = test: Hit confirmation in dose-response curve in Dd2 pLDH assay, at 72h; type: functional, organism-based, Erythrocyte; design: timepoint 72 hour; conditions: Plasmodium falciparum, Dd2, Erythrocyte, 72 h
Plasmodium falciparum [5] = test: Hit confirmation in dose-response curve in NF54 nanoGlo assay, at 72h; type: functional, organism-based, Erythrocyte; design: timepoint 72 hour; conditions: Plasmodium falciparum, NF54, Erythrocyte, 72 h

SMILES	IC50 (Plasmodium falciparum [1])	IC50 at 72 h [2]	IC50 (Plasmodium falciparum [3])	IC50 (Plasmodium falciparum [4])	IC50 (Plasmodium falciparum [5])
Cc1noc(-c2ccnc(NC[C@@H](c3ccccn3)N3CCOCC3)c2)n1	> 10 µM	> 10 µM	3.98 µM	3.02 µM	1.58 µM
Cc1ccc2[nH]c(CNC[C@@H](CO)C3CCC3)cc2c1C	4.47 µM	> 10 µM	4.57 µM	3.63 µM	2.45 µM
NCC1(O)CCN(c2ccnc3cc(F)c(Cl)cc23)CC1	3.09 µM	> 10 µM	2.19 µM	3.24 µM	1.82 µM
CN(C[C@H](O)COc1ccccc1CN1CCC(c2ccncc2)CC1)C1CCCCC1	> 10 µM	> 10 µM	5.37 µM	5.5 µM	5.89 µM
CN(C)CC12CNCC1CN(c1ccnc3cc(Cl)ccc13)C2 (stereo not given)	0.0513 µM	> 10 µM	0.0309 µM	0.043 µM	0.0417 µM
Cc1cc(NCCCN2CCC[C@H](O)C2)c2cc(F)ccc2n1	7.24 µM	> 10 µM	3.89 µM	2.69 µM	3.39 µM
CCOc1cc2nccc(N3C[C@H]4CN(C)C[C@H]4C3)c2cc1OCC	0.933 µM	> 10 µM	0.562 µM	0.525 µM	0.575 µM
Cc1ccc(-c2nnc(Nc3ccccc3)c3ccccc23)cc1CN1C(=O)c2ccccc2C1=O	> 10 µM	> 10 µM	> 10 µM	9.33 µM	3.8 µM
c1ccc(CN2CCC(CCNC[C@@H]3CCCN4CCCC[C@H]34)CC2)cc1	7.24 µM	> 10 µM	2.57 µM	1.78 µM	2.34 µM
O=C(NCc1ccc(OC(F)(F)F)cc1)N(CCN1CCCC1)[C@H]1CCCNC1	> 10 µM	> 10 µM	5.37 µM	4.47 µM	4.57 µM
CCc1cc(Nc2ccc(N3CCOCC3)nc2)nc(-c2ccncc2)n1	> 10 µM	> 10 µM	4.47 µM	6.31 µM	3.72 µM
Cc1sc2nc(-c3ccccn3)nc(NCCc3nccn3C)c2c1-c1ccccc1	8.91 µM	8.32 µM	8.71 µM	3.55 µM	3.24 µM
CCNc1cc(C)nc(NCCNC(=O)Nc2cc(F)cc(F)c2)n1	> 10 µM	> 10 µM	3.47 µM	3.47 µM	2.4 µM
O=C1C2CCCCC2C(c2c(-c3ccccc3)[nH]c3ccccc23)N1Cc1ccccc1 (stereo not given)	> 10 µM	> 10 µM	> 10 µM	> 10 µM	> 10 µM
C[C@H]1CCCN(CCNC(=O)c2ccc(-c3ccc4c(=O)[nH]ccc4c3)cc2)C1	> 10 µM	> 10 µM	0.398 µM	0.575 µM	1.48 µM
CN1CCC(N2CCC(NC(=O)c3ccc(S(=O)(=O)N(C)C4CCCCC4)cc3)CC2)CC1	9.33 µM	> 10 µM	5.89 µM	3.89 µM	4.27 µM
CN(CCCn1ccnc1)c1ccnc2cc(Br)ccc12	1.1 µM	> 10 µM	0.437 µM	0.437 µM	0.55 µM
O=C(NCc1ccc(N2CCNCC2)c(F)c1)c1ccc(-c2noc(C(F)(F)F)n2)cc1	6.61 µM	> 10 µM	2.57 µM	2.63 µM	2.63 µM
COc1ccc2nc(C)cc(NCc3cccc(NC(=O)c4ccco4)c3)c2c1	3.31 µM	> 10 µM	2.45 µM	2.4 µM	1.17 µM

SMILES	IC50 (Plasmodium falciparum [1])	IC50 at 72 h [2]	IC50 (Plasmodium falciparum [3])	IC50 (Plasmodium falciparum [4])	IC50 (Plasmodium falciparum [5])
COCCN1CCC[C@@]2(CCN(c3ccnc4cc(Cl)ccc34)C2)C1	0.234 µM	> 10 µM	0.166 µM	0.135 µM	0.162 µM
C[C@H](Nc1nc(N)c2ccccc2n1)c1cccc(-n2cncn2)c1	10.2 µM	> 10 µM	5.89 µM	4.17 µM	4.47 µM
COc1ccc2cc(NC(=O)c3cc(-c4c(C)nn(C)c4C)[nH]n3)cnc2c1	4.9 µM	> 10 µM	7.24 µM	7.08 µM	2.51 µM
CN(C)C1(CNc2nc(C(F)(F)F)nc3cc4c(cc23)OCO4)CCCCCC1	> 10 µM	> 10 µM	1.26 µM	3.47 µM	2.95 µM
Oc1ccc(C2=CCN(Cc3cccc4[nH]ccc34)CC2)cc1	> 10 µM	> 10 µM	10 µM	5.75 µM	7.24 µM
Fc1ccc(N2CC[C@H](CN3CCC(c4c[nH]c5ccccc45)(c4c[nH]c5ccccc45)CC3)C2)cc1	2.51 µM	> 10 µM	6.61 µM	4.27 µM	1.91 µM
Cc1ccc2[nH]c(-c3cc4n(n3)CCN(c3ccnc(N)n3)C4)nc2c1C	3.63 µM	> 10 µM	2.63 µM	2.63 µM	1.78 µM
N[C@H]1CC[C@@H](NC2CCN(c3ccc(F)c(F)c3)CC2)CC1	9.55 µM	7.76 µM	3.55 µM	3.31 µM	2.82 µM
CCN1CCN(c2ccc(CNCc3cccc(O)c3)cc2F)CC1	8.91 µM	> 10 µM	3.39 µM	3.89 µM	1.95 µM
CC(C)(C)c1ccc(CNC[C@H](O)c2ccc(F)cc2F)cc1	1.45 µM	> 10 µM	2.82 µM	1.95 µM	0.891 µM
Cc1cccc(Nc2ccnc(Nc3ccc(N4CCN(C)CC4)cc3)n2)c1	> 10 µM	> 10 µM	1.29 µM	1.23 µM	1.15 µM
CCN(Cc1[nH]c2ccc(Cl)cc2c1C)CC1CCN(C2CCN(C)CC2)CC1	3.09 µM	> 10 µM	1.74 µM	1.62 µM	1.51 µM
CCOc1ccc2nc(CN(CC)CC3CCN(C4CCN(C)CC4)CC3)ccc2c1	3.55 µM	> 10 µM	2.45 µM	2 µM	1.95 µM
COc1ccnc(NCCCc2nc(-c3ccncc3)cs2)n1	> 10 µM	> 10 µM	5.89 µM	4.68 µM	4.79 µM
Cc1cccc(N2CCC(NCc3cc(C)cc(CN4CCN(C)CC4)c3C)CC2)c1	5.89 µM	> 10 µM	2.95 µM	3.02 µM	3.09 µM
CCNc1nc(C)cc(Nc2ccc(NC(=O)Nc3ccc(F)cc3F)cc2)n1	0.562 µM	2.63 µM	0.389 µM	0.269 µM	0.263 µM
CCn1cc(-c2cccc(C(=O)N[C@@H](C)CN3CCc4ccccc4C3)c2)cn1	> 10 µM	> 10 µM	9.12 µM	9.77 µM	8.32 µM
Cc1cc(O)c(Cl)cc1-c1cccc2c(N)ccnc12	> 10 µM	> 10 µM	1.48 µM	2.04 µM	1.17 µM
